Measurements published in US12077568B2 (University of Houston System, priority 2018, dated 2024).

Assays:
normal mice = assay: Lowering of blood glucose level in normal mice; assay type: in vivo; settings: intraperitoneal, 20-24 μg/mouse
Description: FIGS. 7A-B. Effect of SPC-insulins on lowering blood glucose level in vivo. The purified yeast-(FIG. 7A) or E. coli-(FIG. 7B) expressed SPC-insulin-P (p-insulin) and SPC-insulin-PP (2p-insulin) (20-24 μg/mouse) was injected (intraperitoneally) into normal mice. The glucose levels of the blood collected from tail vein at the increasing time points were measured using Contour^next One glucose meter (n=6). Humulin R (20-24 μg/mouse) was used as a positive control (n=6, M±SE). The mice were under normal diets.
FIGS. 8A-B. (FIG. 8A) Effect of SPC-insulins on lowering blood glucose level of normal mice using subcutaneous injection. The yeast-expressed SPC-insulin-P (p-insulin) and SPC-insulin-PP (2p-insulin) (20-30 μg/mouse) was injected subcutaneously into the normal mice (n=6). (FIG. 8B) Effects of the purified E. coli-expressed SPC-insulins on lowering blood glucose level of STZ-induced type-1 diabetic mice. 20-30 μg/mouse of the purified E. coli-expressed SPC-P (P-insulin) or SPC-insulin-PP (PP-insulin) was intraperitoneally injected into the STZ-induced Type-1 diabetic mice (with an elevated blood glucose levels of 370-400 mg/dl, n=6). The glucose levels of the blood collected from the mouse tail vein at the increasing time points were measured using Contour^next One glucose meter. Humulin R (20-24 μg/mouse) was used as a positive control (n=6, M±SE). […]

[1] = tested on: STZ-induced type-1 diabetic mice; assay: Lowering of blood glucose level in STZ-induced type-1 diabetic mice; assay type: in vivo; settings: intraperitoneal, 20-30 μg/mouse; for start of working after injection: purified E. coli-expressed
Description: FIGS. 8A-B. (FIG. 8A) Effect of SPC-insulins on lowering blood glucose level of normal mice using subcutaneous injection. The yeast-expressed SPC-insulin-P (p-insulin) and SPC-insulin-PP (2p-insulin) (20-30 μg/mouse) was injected subcutaneously into the normal mice (n=6). (FIG. 8B) Effects of the purified E. coli-expressed SPC-insulins on lowering blood glucose level of STZ-induced type-1 diabetic mice. 20-30 μg/mouse of the purified E. coli-expressed SPC-P (P-insulin) or SPC-insulin-PP (PP-insulin) was intraperitoneally injected into the STZ-induced Type-1 diabetic mice (with an elevated blood glucose levels of 370-400 mg/dl, n=6). The glucose levels of the blood collected from the mouse tail vein at the increasing time points were measured using Contour^next One glucose meter. Humulin R (20-24 μg/mouse) was used as a positive control (n=6, M±SE). STZ-Control=oval; Hummulin R=rectangle; SPC-Insulin-P=upward pointing triangle; SPC-Insulin-PP=downward pointing triangle.
The second animal model is the STZ-induced type-1 diabetic mouse. The mice received STZ injection quickly developed into type 1 diabetes because STZ destroyed the insulin-producing cells in pancreas and elevated the glucose level (FIGS. 8A-B, blood glucose level labeled with STZ). The both of the purified SPC-insulin-P and -PP were tested on the diabetic mice. Similar to that of the normal mice, the SPC-insulins started working around 1-1.5 hours after injection, reached to the best therapeutic effects around 4 hours, and then last for 24-48 hours (FIGS. 8A-B).

[2] = commercial insulins; cited from earlier work

| Substance | duration of blood glucose lowering effect (normal mice) | duration of effect [1] | time to best therapeutic effect [1] | start of working after injection [1] | duration of action [2] |
| --- | --- | --- | --- | --- | --- |
| Humulin R: commercial regular human insulin, two-chain, used as positive control | 4 to 8 h |  |  |  |  |
| SPC-insulin-PP: single polypeptide chain human insulin, b-chain linked to a-chain by two proline residues |  | 24 to 48 h | around 4 hours | 1 to 1.5 h |  |
| insulin Glargine |  |  |  |  | 18 to 24 h |
| insulin Detemir |  |  |  |  | 18 to 24 h |
| SPC-insulin-P: single polypeptide chain human insulin, b-chain C-terminus linked to a-chain N-terminus by one proline residue |  | 24 to 48 h | around 4 hours | 1 to 1.5 h |  |
